According to paper PMC10937556, “Phenolic phytochemistry, in vitro, in silico, in vivo, and mechanistic anti-inflammatory and antioxidant evaluations of Habenaria digitata” (Frontiers in Pharmacology, 2024):
Read-outs that look alike come from different tables or passages of the source.

Legend:
[1] = target: T1, COX-2 (Homo sapiens, UniProt P35354); assay: Cyclooxygenase COX-2 inhibition assay; type: biochemical; conditions: for inhibition at 62.5 µg/mL: 62.50 μg/mL; for inhibition at 1000 µg/mL: 1,000 µg/mL
T1 construct: purchased Sigma-Aldrich (local distributor) C0858
T1 sequence (P35354 18-604): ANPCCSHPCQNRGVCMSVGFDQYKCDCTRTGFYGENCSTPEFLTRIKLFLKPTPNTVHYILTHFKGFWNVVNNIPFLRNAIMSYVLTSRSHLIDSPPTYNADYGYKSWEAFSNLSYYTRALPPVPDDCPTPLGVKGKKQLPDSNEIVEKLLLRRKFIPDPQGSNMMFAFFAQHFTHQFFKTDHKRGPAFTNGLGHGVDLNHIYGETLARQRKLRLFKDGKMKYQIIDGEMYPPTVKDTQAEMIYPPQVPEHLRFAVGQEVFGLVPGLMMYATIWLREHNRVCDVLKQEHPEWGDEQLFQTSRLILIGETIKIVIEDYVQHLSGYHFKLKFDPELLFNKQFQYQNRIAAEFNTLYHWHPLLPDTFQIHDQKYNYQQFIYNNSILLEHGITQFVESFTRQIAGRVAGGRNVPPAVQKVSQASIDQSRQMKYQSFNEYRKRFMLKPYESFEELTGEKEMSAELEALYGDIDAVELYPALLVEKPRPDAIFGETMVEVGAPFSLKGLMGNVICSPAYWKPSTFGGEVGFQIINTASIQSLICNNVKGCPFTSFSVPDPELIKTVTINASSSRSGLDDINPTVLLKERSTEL
Procedure: The COX-2 enzyme solution with 300 U/mL concentrations was formed. The enzyme solution (10 µL) was maintained on ice up to 10 min for activation. Moreover, this solution was added to a 50 µL co-factor solution containing 1 mM hematin, 0.9 mM glutathione, and 0.24 mM N,N,N,N-tetramethyl-p-phenylenediamine dihydrochloride (TMPD) in 0.1 M Tris HCl buffer at pH 8.0. […] Likewise, 30 mM of arachidonic acid (20 µL) was mixed for initiating the reaction and incubated for 4–5 min. Following incubation, absorbance of the samples was determined using a UV-visible spectrophotometer at 570 nm. The percentage inhibition of the COX-2 enzyme was determined through the absorbance value per unit time. Enzyme inhibition against various concentrations of investigated samples was used to calculate the IC50 values.

[2] = target: COX-1 (Ovis aries, UniProt P05979); assay: Cyclooxygenase COX-1 inhibition assay; type: biochemical; conditions: for inhibition at 62.5 µg/mL / inhibition at 125 µg/mL / inhibition at 500 µg/mL: read-out: % COX-1 inhibition; for inhibition at 1000 µg/mL: 1,000 µg/mL
[3] = system: carrageenan-induced paw edema; assay: Carrageenan-induced paw edema; type: in vivo, mice
Procedure: Mice of both sexes (25–30 g) were used for in vivo anti-inflammatory activity of test samples on the carrageenan-induced inflammation model ([Munir et al., 2020]). Mice were distributed into five groups, with eight animals in each group, divided at random. Group-I served as the negative control and received DMSO at a dose of 10 mL/kg body weight. Group-II served as a positive control, which received aspirin at a dose of 100 mg/kg body weight. […] Each mouse received 1 percent (w/v) saline solution (0.05 mL) of carrageenan in the sub-planter region after a 30-min interval. The paw edema volume was determined using a plethysmometer (LE 7500-plan lab S.L) at 1–5 h intervals after carrageenan was given. […] The percentages of inhibition of inflammation were calculated using the formula given below: % inhibition=EC−ET/EC×100, where “EC” is the average edema of control and “ET” is the edema of the tested group.

[4] = system: SOD; assay: In vivo antioxidant: SOD activity in brain, heart, liver; design: species or system mice; conditions: for SOD activity: D-galactose aging mice
[5] = system: GSH-Px; assay: In vivo antioxidant: GSH-Px activity in brain, heart, liver; conditions: D-galactose aging mice
Procedure: (§1) Twenty male albino mice were distributed into four groups, each with five mice. The control group (group 1) received 0.4 mL of distilled water. The compound was given in doses of 2.5, 5, and 10 mg/kg to groups 2, 3, and 4, respectively. Throughout the trial, the mice were given a daily dose for 3 weeks and were evaluated for alterations, other symptoms of toxicity, and death on a daily basis. Blood obtained by a direct heart puncture was utilized to assess the compound’s in vivo antioxidant activity 24 hours following the last dose ([Mota et al., 2023]).
The brain, liver, and heart homogenates were prepared in the cold saline via a homogenizer, and the unsolvable extract was discarded by centrifugation at 10,000 rpm for 15 min at temperature 4°C. After that, the supernatant was extracted immediately for GSH-Px assay ([Li et al., 2021]).

[6] = system: MDA; assay: In vivo antioxidant: MDA level; design: species or system mice; conditions: compound 1 (20 mg)
[7] = system: CAT; assay: In vivo antioxidant: CAT activity; design: species or system mice; conditions: high tested dose
Procedure: as §1, with “Blood obtained by a direct heart puncture was utilized to assess the compound’s in vivo antioxidant activity 24 hours following the last dose ([Mota et al., 2023]).” left out
[…] […] The reaction was started by adding 0.1 mL of fresh 30 mM H2O2, and the decomposition rate of H2O2 was measured on a spectrophotometer at 240 nm for 5 min. Catalase activity was determined using a molar extinction coefficient of 0.041 mM^−1 cm^−1.

[8] = system: histamine-induced paw edema; assay: Histamine-induced paw edema; conditions: 20 mg/kg, 2nd hour
Procedure: (§2) Employing prostaglandin E2, bradykinin, leukotriene, and histamine induced paw edema assays; the potential anti-inflammatory mechanism of the isolated compound was investigated. […] Sub-planter injections of prostaglandin E2 (0.01 mg/mL) or 10 mg/mL leukotriene or bradykinin (20 mg/mL) or 0.1 mL histamine (1 mg/mL) produced paw edema after 1 h. Each mouse’s paw volume was assessed immediately before and after sub-planter injection of various irritants (inflammatory agents) at 1–5 h.

[9] = system: bradykinin-induced paw edema; assay: Bradykinin-induced paw edema
Procedure: as §2

[10] = system: leukotriene-induced paw edema; assay: Leukotriene-induced paw edema; conditions: 20 mg/kg
Procedure: as §2

COX-1, sequence (P05979 25-600): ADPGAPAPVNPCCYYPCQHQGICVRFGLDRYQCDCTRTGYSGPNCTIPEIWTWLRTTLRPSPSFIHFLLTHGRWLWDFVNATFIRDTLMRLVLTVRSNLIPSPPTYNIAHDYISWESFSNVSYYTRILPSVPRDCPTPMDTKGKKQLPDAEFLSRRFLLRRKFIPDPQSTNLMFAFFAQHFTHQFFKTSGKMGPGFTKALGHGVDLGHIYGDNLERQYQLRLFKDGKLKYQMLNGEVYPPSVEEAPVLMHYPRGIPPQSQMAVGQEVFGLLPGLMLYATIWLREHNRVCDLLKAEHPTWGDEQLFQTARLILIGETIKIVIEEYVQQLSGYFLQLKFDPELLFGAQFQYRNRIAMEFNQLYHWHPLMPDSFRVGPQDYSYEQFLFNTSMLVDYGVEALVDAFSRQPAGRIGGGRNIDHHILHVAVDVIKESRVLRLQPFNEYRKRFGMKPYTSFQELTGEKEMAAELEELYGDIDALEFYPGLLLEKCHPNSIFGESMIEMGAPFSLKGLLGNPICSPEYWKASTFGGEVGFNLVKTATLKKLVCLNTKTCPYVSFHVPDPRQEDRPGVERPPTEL

Structure (SMILES): Cc1cnc(O)nc1O [Compound 1, 5-methylpyrimidine-24,4-diol]
- IC50 [1]: 84.8 µM
- inhibition at 62.5 µg/mL [1]: 61.1 ± 0.7%
- inhibition at 125 µg/mL [1]: 66.4 ± 0.7%
- inhibition at 250 µg/mL [1]: 72.7 ± 0.51%
- inhibition at 500 µg/mL [1]: 78.83 ± 0.73%
- inhibition at 1000 µg/mL [1]: 83.13 ± 0.8%
- inhibition at 62.5 µg/mL ([2]; 62.50 μg/mL): 45.8 ± 0.9%
- inhibition at 125 µg/mL ([2]; 125 µg/mL): 55.4 ± 0.2%
- inhibition at 250 µg/mL [2]: 60.6 ± 0.63%
- inhibition at 500 µg/mL ([2]; 500 µg/mL): 66.5 ± 0.9%
- inhibition at 1000 µg/mL [2]: 73.1 ± 1.04%
- Percentage inhibition of paw edema ([3]; dose 5 mg/kg, 1 h): 46.72 ± 2.63 ns %
- Percentage inhibition of paw edema ([3]; dose 5 mg/kg, 2 h): 50.46 ± 2.52 %
- Percentage inhibition of paw edema ([3]; dose 5 mg/kg, 3 h): 53.58 ± 1.33 %
- Percentage inhibition of paw edema ([3]; dose 5 mg/kg, 4 h): 52.37 ± 1.46 %
- Percentage inhibition of paw edema ([3]; dose 5 mg/kg, 5 h): 55.23 ± 1.61 %
- Percentage inhibition of paw edema ([3]; dose 10 mg/kg, 1 h): 51.37 ± 2.23 %
- Percentage inhibition of paw edema ([3]; dose 10 mg/kg, 2 h): 53.56 ± 3.57 %
- Percentage inhibition of paw edema ([3]; dose 10 mg/kg, 3 h): 56.56 ± 1.57 %
- Percentage inhibition of paw edema ([3]; dose 10 mg/kg, 4 h): 55.76 ± 2.62 %
- Percentage inhibition of paw edema ([3]; dose 10 mg/kg, 5 h): 61.68 ± 2.77 %
- Percentage inhibition of paw edema ([3]; dose 20 mg/kg, 1 h): 54.27 ± 3.06 %
- Percentage inhibition of paw edema ([3]; dose 20 mg/kg, 2 h): 56.38 ± 1.67 %
- Percentage inhibition of paw edema ([3]; dose 20 mg/kg, 3 h): 59.74 ± 2.67 %
- Percentage inhibition of paw edema ([3]; dose 20 mg/kg, 4 h): 58.02 ± 1.95 %
- SOD activity ([4]; brain, high-dosage group): 95 U/mL
- SOD activity ([4]; heart, compound 1 (10 mg) group): 140.0 U/mg proteins
- SOD activity ([4]; heart, high-dosage group): 180.0 U/mg proteins
- SOD activity ([4]; liver, high-dosage group): 890.0 U/mg protein
- SOD activity compared to the model group ([4]; p < 0.05, D-galactose aging mice): higher
- GSH-Px activity in brain, heart and liver [5]: enhances the activity of GSH-Px
- MDA concentration ([6]; brain): 1.15 nmol/mL
- MDA concentration ([6]; heart): 0.8 nmol/mg protein
- MDA concentration ([6]; liver): 0.4 nmol/mg protein
- CAT activity ([7]; brain): 97 U/mL
- CAT activity ([7]; heart): 143.02 U/mg protein
- CAT activity ([7]; liver): 139.0 U/mg protein
- Percentage inhibition of histamine-induced paw edema [8]: 28.12 ± 0.62%
- Percentage inhibition of bradykinin-induced paw edema ([9]; 20 mg/kg, initial hour): 9.20 ± 1.12%
- Activity against bradykinin-induced paw edema ([9]; low doses): no activity
- Percentage inhibition of leukotriene-induced paw edema ([10]; 1 h): 53.00 ± 1.10%
- Percentage inhibition of leukotriene-induced paw edema ([10]; 2 h): 59.50 ± 0.92%
- Percentage inhibition of leukotriene-induced paw edema ([10]; 3 h): 62.0 ± 0.70%
- Percentage inhibition of leukotriene-induced paw edema ([10]; 4 h): 54.84 ± 0.92%
- Percentage inhibition of leukotriene-induced paw edema ([10]; 5 h): 41.43 ± 1.10%

Structure (SMILES): CC1=C(O)C(=O)C(O)CO1 (centres unmarked) [Compound 2, 3,5-dihydroxy-6-methyl-2,3-dihydro-4H-pyran-4-one]
- IC50 [1]: 101 µM
- inhibition at 62.5 µg/mL [1]: 58.12 ± 0.34%
- inhibition at 125 µg/mL [1]: 63.47 ± 0.49%
- inhibition at 250 µg/mL [1]: 68.75 ± 0.14%
- inhibition at 500 µg/mL [1]: 75.59 ± 0.3%
- inhibition at 1000 µg/mL [1]: 80.85 ± 0.18%
- inhibition at 62.5 µg/mL ([2]; 62.50 μg/mL): 40.8 ± 1.06%
- inhibition at 125 µg/mL ([2]; 125 µg/mL): 46.4 ± 0.62%
- inhibition at 250 µg/mL [2]: 54.6 ± 0.58%
- inhibition at 500 µg/mL ([2]; 500 µg/mL): 65.29 ± 0.41%
- inhibition at 1000 µg/mL [2]: 71.37 ± 0.56%

Structure (SMILES): Cc1ccc(C(C)C)c(O)c1 [Compound 3, 2-isopropyl-5-methylphenol]
- IC50 [1]: 145 µM
- inhibition at 62.5 µg/mL [1]: 53 ± 0.57%
- inhibition at 125 µg/mL [1]: 62.5 ± 0.44%
- inhibition at 250 µg/mL [1]: 66.33 ± 0.33%
- inhibition at 500 µg/mL [1]: 74.7 ± 1.2%
- inhibition at 1000 µg/mL [1]: 79 ± 0.16%
- inhibition at 62.5 µg/mL [2]: 41.3 ± 1.01%
- inhibition at 125 µg/mL [2]: 46.7 ± 0.78%
- inhibition at 500 µg/mL [2]: 57.9 ± 0.97%

Structure (SMILES): C=Cc1ccc(O)cc1OC [Compound 4, 3-methoxy-4-vinylphenol]
- IC50 [1]: 135 µM
- inhibition at 62.5 µg/mL [1]: 55.56 ± 0.52%
- inhibition at 125 µg/mL [1]: 64.78 ± 0.6%
- inhibition at 250 µg/mL [1]: 71.46 ± 0.53%
- inhibition at 500 µg/mL [1]: 77.68 ± 0.63%
- inhibition at 1000 µg/mL [1]: 85.72 ± 0.79%
- inhibition at 62.5 µg/mL ([2]; 62.50 μg/mL): 33 ± 1.15%
- inhibition at 125 µg/mL ([2]; 125 µg/mL): 42.7 ± 0.89%
- inhibition at 250 µg/mL [2]: 49 ± 0.58%
- inhibition at 500 µg/mL ([2]; 500 µg/mL): 63.03 ± 0.23%
- inhibition at 1000 µg/mL [2]: 71.33 ± 0.49%

Structure (SMILES): C=Cc1cc(OC)c(O)c(OC)c1 [Compound 5, 2,6-dimethoxy-4-vinylphenol]
- IC50 [1]: 217 µM
- inhibition at 62.5 µg/mL [1]: 46.9 ± 0.42%
- inhibition at 125 µg/mL [1]: 56.4 ± 0.63%
- inhibition at 250 µg/mL [1]: 61 ± 0.33%
- inhibition at 500 µg/mL [1]: 66.2 ± 0.73%
- inhibition at 62.5 µg/mL ([2]; 62.50 μg/mL): 29.15 ± 0.22%
- inhibition at 125 µg/mL ([2]; 125 µg/mL): 41.4 ± 0.71%
- inhibition at 250 µg/mL [2]: 47.39 ± 0.35%
- inhibition at 500 µg/mL ([2]; 500 µg/mL): 57.42 ± 0.12%
- inhibition at 1000 µg/mL [2]: 67.73 ± 0.03%
